Measurements reported in US20100113550A1, “New Crystal Forms” (BIAL - PORTELA AND CA, S.A., priority 2006, published 2010).
Entries after “also recorded” stand apart in the source; their conditions may differ. Read-outs that look alike come from different tables or passages of the source.

Tests used:
Format in all cases: physicochemical
[1] = Approximate solubilities (solvent added until a solution forms); conditions: for solubility: read-out: Solubility (approximate)
Source text: Approximate solubilities of compound 1, Form A in aqueous mixtures containing high concentrations of organic solvents are given in Table 1. [table]

[2] = RH stability: storage at controlled relative humidity or drying, checked by XRPD and for deliquescence; conditions: high relative humidities, long periods of time
Source text: Form A samples were stored at lower relative humidities of approximately 9-11, 23 and 32% RH and analyzed by XRPD and Karl-Fischer titration analysis after four weeks (Tables 30 and 31). The samples appeared to be Form A by XRPD. […] Note that the water content in the samples at 23 and 32% RH was slightly higher compared to the initial batch of Form A.
Form X samples were stored at relative humidities of approximately 43, 75 and 90% RH and analyzed by XRPD and Karl-Fischer titration analysis after five weeks (Tables 34 and 35).

[3] = Interconversion studies of Forms A and C (slurries, XRPD); conditions: interconversion in ethanol and acetone:water 99:1
Protocol: A slurry of compound 1, Form A, was prepared in a given solvent and loaded on an orbit shaker at either ambient or elevated temperature for at least 1 day. The liquid phase of the slurry was drawn off with a pipette and filtered through a 0.2-μm filter. A slurry containing compound 1 forms A and C was prepared using the filtered liquid phase from the Form A slurry. The mixture was then loaded on an orbit shaker in a sealed vial at either ambient or elevated temperature for 1 or 7 days. The solids were isolated by vacuum filtration or by drawing the liquid phase off with a pipette and allowing the solids to air dry at ambient conditions prior to analysis. The resulting Forms were characterised by XRPD.

[4] = RH stability: storage at controlled relative humidity or drying, checked by XRPD and for deliquescence

Cl.NCCc1c[nH]c(=S)n1[C@H]1COc2c(F)cc(F)cc2C1 [Form C, (R)-5-(2-Aminoethyl)-1-(6,8-difluorochroman-3-yl)-1,3-dihydroimidazole-2-thione hydrochloride]
solubility ([1]; 1,4-dioxane, organic solvent or mixture, 1,4-dioxane): < 1000 µg/mL | solubility ([1]; 1,4-dioxane:water 9:1, organic solvent or mixture, 1,4-dioxane:water 9:1): > 22000 µg/mL | Solubility (approximate) ([1]; 1,4-dioxane:water 99:1, hydrochloride): <22000 µg/mL | Solubility (approximate) ([1]; 2,2,2-trifluoroethanol, hydrochloride): 1700 µg/mL | solubility ([1]; THF:water 9:1, organic solvent or mixture, THF:water 9:1): > 23000 µg/mL | solubility ([1]; THF:water 99:1, organic solvent or mixture, THF:water 99:1): < 24000 µg/mL | Solubility (approximate) ([1]; acetone:water 90:10 (9:1)): >23000 µg/mL | Solubility (approximate) ([1]; acetone:water 99:1, hydrochloride): <24000 µg/mL | Solubility (approximate) ([1]; acetone, hydrochloride): <1000 µg/mL | solubility ([1]; acetonitrile, organic solvent or mixture, acetonitrile): < 1000 µg/mL | solubility ([1]; acetonitrile:water 4:1, organic solvent or mixture, acetonitrile:water 4:1): > 40000 µg/mL | Solubility (approximate) ([1]; acetonitrile:water 90:10 (9:1), hydrochloride): <25000 µg/mL | Solubility compared with the other forms (in words) ([1]; comparison between forms): lower compared to the solubilities of Form A | solubility ([1]; dichloromethane, organic solvent or mixture, dichloromethane): < 1000 µg/mL | solubility ([1]; diethyl ether, organic solvent or mixture, diethyl ether): < 1000 µg/mL | Solubility (approximate) ([1]; ethanol:water 90:10 (9:1), hydrochloride): <22000 µg/mL | Solubility (approximate) ([1]; ethanol, hydrochloride): 2000 µg/mL | solubility ([1]; ethyl acetate, organic solvent or mixture, ethyl acetate): < 1000 µg/mL | solubility ([1]; hexafluoro isopropanol, organic solvent or mixture, hexafluoro isopropanol): 1000 µg/mL | solubility ([1]; hexane, organic solvent or mixture, hexane): < 1000 µg/mL | Solubility (approximate) ([1]; iso-propanol, hydrochloride): <1000 µg/mL | Solubility (approximate) ([1]; methanol, hydrochloride): 21000 µg/mL | Solubility (approximate) ([1]; methyl ethyl ketone, hydrochloride): <1000 µg/mL | solubility ([1]; n-propanol, organic solvent or mixture, n-propanol): < 1000 µg/mL | Solubility by kind of solvent (in words) ([1]; organic solvents and aqueous mixtures, hydrochloride): poorly soluble in most organic solvents, except in methanol; also recorded: slightly soluble in ethanol, hexafluoroisopropanol, 2,2,2-trifluoroethanol, and some aqueous mixtures | Solubility (approximate) ([1]; tetrahydrofuran (THF), hydrochloride): <1000 µg/mL | solubility ([1]; toluene, organic solvent or mixture, toluene): < 1000 µg/mL | solubility ([1]; water): 23000 µg/mL | Stability under high relative humidities [2]: remain stable | Relative thermodynamic stability of the forms [3]: more thermodynamically stable than Form A | Hygroscopicity [4]: non-hygroscopic | RH stability, XRPD result ([4]; 95% relative humidity, ~2 months): did not change | Deliquescence ([4]; approximately 65% relative humidity, one week): did not deliquesce | Deliquescence ([4]; approximately 90% relative humidity, 11 days): did not deliquesce
